Measurements as given in ChEMBL document CHEMBL1147699, “Studies on the novel alpha-glucosidase inhibitory activity and structure-activity relationships for andrographolide analogues” (Bioorg Med Chem Lett, 2006).
Calls of active or inactive are those of the source. No cut-off for these calls is given here.

How the values were obtained:
[1] = biological target: T1, Cytosolic beta-glucosidase (Homo sapiens) (UniProt Q9H227); assay: Inhibition of beta glucosidase at 100 uM
T1 sequence (whole entry): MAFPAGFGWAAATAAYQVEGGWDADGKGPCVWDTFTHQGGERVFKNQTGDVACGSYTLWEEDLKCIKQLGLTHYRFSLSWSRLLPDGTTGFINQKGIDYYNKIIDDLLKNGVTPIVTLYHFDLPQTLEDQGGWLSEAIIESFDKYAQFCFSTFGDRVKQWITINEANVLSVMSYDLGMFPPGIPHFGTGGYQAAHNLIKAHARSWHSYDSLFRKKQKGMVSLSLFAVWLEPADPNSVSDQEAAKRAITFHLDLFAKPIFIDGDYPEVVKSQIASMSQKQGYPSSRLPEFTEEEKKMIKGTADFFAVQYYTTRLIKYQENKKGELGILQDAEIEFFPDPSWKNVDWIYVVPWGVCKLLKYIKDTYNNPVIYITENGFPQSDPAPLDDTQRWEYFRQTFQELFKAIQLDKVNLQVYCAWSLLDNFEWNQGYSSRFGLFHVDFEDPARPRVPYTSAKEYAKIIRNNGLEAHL

[2] = biological target: Maltase-glucoamylase (Homo sapiens) (UniProt O43451); assay: Inhibition of alpha glucosidase at 100 uM
Maltase-glucoamylase (Homo sapiens), sequence (O43451 whole entry, looked up): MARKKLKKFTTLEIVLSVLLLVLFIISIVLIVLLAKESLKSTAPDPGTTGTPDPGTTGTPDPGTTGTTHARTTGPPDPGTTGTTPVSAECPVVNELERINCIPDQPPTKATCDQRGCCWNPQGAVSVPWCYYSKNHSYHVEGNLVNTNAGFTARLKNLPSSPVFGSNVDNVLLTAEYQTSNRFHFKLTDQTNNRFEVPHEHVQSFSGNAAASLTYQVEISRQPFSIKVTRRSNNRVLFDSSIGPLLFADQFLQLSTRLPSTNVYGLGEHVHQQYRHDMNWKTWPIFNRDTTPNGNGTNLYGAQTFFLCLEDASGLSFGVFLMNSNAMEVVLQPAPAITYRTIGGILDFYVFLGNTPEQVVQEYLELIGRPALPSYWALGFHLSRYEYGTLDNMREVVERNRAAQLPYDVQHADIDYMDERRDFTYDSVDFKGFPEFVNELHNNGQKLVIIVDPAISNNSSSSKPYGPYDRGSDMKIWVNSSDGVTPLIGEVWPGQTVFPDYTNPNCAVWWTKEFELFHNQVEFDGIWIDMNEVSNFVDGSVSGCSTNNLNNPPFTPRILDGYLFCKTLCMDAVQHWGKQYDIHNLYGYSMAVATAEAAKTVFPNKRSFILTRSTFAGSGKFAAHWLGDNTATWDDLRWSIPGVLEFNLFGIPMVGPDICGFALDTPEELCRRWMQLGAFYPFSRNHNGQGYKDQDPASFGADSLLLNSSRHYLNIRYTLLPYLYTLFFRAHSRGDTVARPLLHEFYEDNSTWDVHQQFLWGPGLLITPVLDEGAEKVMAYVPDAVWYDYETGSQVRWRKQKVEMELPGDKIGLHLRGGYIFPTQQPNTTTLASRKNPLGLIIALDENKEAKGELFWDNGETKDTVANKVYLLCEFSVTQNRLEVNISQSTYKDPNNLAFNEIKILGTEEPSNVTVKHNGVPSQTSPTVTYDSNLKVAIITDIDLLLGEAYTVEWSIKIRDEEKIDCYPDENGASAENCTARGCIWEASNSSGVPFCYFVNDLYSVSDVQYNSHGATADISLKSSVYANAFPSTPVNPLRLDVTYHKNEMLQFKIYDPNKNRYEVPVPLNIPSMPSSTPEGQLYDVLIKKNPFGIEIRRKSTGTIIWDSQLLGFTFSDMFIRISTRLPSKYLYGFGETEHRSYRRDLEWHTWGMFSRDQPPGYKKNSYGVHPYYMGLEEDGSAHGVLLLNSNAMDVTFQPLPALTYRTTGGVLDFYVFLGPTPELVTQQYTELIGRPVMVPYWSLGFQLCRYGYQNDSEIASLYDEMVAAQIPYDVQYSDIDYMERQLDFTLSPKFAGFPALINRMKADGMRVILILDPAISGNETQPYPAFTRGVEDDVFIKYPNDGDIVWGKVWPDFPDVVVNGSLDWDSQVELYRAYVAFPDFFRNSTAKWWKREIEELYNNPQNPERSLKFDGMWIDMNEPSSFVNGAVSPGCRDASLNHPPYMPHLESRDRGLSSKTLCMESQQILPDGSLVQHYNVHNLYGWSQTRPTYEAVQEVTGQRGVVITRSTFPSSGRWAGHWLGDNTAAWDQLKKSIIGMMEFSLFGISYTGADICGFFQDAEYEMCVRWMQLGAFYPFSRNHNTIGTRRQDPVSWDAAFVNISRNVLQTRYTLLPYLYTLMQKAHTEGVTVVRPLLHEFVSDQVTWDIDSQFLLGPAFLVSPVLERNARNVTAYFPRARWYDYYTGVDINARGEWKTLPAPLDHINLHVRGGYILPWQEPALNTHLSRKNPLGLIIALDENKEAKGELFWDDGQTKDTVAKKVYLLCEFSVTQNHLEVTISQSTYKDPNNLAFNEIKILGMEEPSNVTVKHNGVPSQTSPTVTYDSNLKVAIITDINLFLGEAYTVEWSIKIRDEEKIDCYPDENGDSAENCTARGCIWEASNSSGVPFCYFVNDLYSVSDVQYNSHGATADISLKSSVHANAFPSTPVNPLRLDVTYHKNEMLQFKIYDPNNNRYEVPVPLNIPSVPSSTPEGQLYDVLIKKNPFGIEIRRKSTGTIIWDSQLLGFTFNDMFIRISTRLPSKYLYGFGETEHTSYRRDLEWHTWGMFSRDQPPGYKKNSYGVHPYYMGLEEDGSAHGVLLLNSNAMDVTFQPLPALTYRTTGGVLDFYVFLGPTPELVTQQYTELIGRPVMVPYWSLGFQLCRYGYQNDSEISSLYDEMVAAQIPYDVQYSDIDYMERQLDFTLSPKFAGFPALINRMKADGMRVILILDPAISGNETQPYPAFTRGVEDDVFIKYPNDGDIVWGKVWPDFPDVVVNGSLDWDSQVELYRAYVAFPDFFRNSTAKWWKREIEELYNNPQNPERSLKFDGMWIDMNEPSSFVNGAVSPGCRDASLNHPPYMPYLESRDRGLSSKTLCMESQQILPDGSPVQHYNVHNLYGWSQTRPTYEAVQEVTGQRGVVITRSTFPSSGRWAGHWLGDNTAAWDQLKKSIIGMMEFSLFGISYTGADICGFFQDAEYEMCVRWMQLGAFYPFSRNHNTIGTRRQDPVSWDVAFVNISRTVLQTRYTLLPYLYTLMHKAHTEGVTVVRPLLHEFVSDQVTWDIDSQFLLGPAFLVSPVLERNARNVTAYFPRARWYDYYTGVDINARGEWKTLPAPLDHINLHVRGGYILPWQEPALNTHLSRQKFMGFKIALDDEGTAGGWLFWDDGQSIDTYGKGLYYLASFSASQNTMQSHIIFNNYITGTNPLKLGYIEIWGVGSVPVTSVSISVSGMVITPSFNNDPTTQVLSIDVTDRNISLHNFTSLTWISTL

For `C=C1CC[C@@H]2[C@](C)(CO)[C@H](O)CC[C@@]2(C)/C1=C/C=C1\C=COC1=O`, the inhibition [1] was “inactive” and the inhibition [2] was “inactive”.

`C=C1CC[C@@H]2[C@]3(C)COC(c4cc(OC)c(OC)cc4OC)O[C@@H]3CC[C@@]2(C)[C@@H]1C/C=C1/C(=O)OC[C@H]1O` (stereo not given in full) gave an inhibition [2] of 14.5%.

`C=C1CC[C@@H]2[C@](C)(CO)[C@H](O)CC[C@@]2(C)[C@@H]1/C=C/C1=CC(=C/c2ccc(OC)cc2)/OC1=O` showed an inhibition [2] of 100%.

For `C[C@]1(CO)[C@H]2CC[C@@]3(CO3)[C@@H](/C=C/C3=CC(=C/C=C/c4ccccc4)/OC3=O)[C@]2(C)CC[C@H]1O`, the inhibition [2] was 49.2%.

For `C=C1CC[C@@H]2[C@]3(C)COCO[C@@H]3CC[C@@]2(C)[C@@H]1C/C=C1/C(=O)OC[C@H]1O`, the inhibition [1] was “inactive” and the inhibition [2] was “inactive”.

For `C=C1CC[C@@H]2[C@](C)(CO)[C@H](O)CC[C@@]2(C)[C@@H]1/C=C/C1=CC(=C/c2ccc(Cl)cc2)/OC1=O`, the inhibition [2] was “inactive”.

`C=C1CC[C@@H]2[C@]3(C)COC(c4ccc(F)cc4)O[C@@H]3CC[C@@]2(C)[C@@H]1C/C=C1/C(=O)OC[C@H]1O` (stereo not given in full) gave an inhibition [2] of 26.2%.

Compound `C=C1CC[C@@H]2[C@](C)(CO)[C@H](O)CC[C@@]2(C)[C@@H]1/C=C/C1=CC(=C/C=C/c2ccccc2)/OC1=O` has an inhibition [2] of 84.3%.

`C=C1CC[C@@H]2[C@]3(C)COC(c4ccccc4OC)O[C@@H]3CC[C@@]2(C)[C@@H]1C/C=C1/C(=O)OC[C@H]1O` (stereo not given in full) was tested, and the inhibition [2] was 5.5%.

With `C=C1CC[C@@H]2[C@]3(C)COC(c4ccc(Cl)cc4)O[C@@H]3CC[C@@]2(C)[C@@H]1C/C=C1/C(=O)OC[C@H]1O` (stereo not given in full) the inhibition [1] was “inactive” and the inhibition [2] was “inactive”.

`C=C1CC[C@@H]2[C@](C)(CO)[C@H](O)CC[C@@]2(C)[C@@H]1/C=C/C1=CC(=C/c2ccc(F)cc2)/OC1=O` was tested, and the inhibition [2] was “inactive”.

With `C=C1CC[C@@H]2[C@](C)(CO)[C@H](O)CC[C@@]2(C)[C@@H]1/C=C/C1=CCOC1=O` the inhibition [1] was “inactive” and the inhibition [2] was 16.5%.

For `C=C1CC[C@@H]2[C@]3(C)COC(C)(C)O[C@@H]3CC[C@@]2(C)[C@@H]1C/C=C1/C(=O)OC[C@H]1O`, the inhibition [1] was “inactive” and the inhibition [2] was “inactive”.

`C=C1CC[C@@H]2[C@](C)(CO)[C@H](O)CC[C@@]2(C)[C@@H]1/C=C/C1=CC(=C/C)/OC1=O` was tested, and the inhibition [1] was “inactive” and the inhibition [2] was 15.1%.

With `CC(C)=C1C=C(/C=C/[C@@H]2[C@@]3(CC[C@@H]4[C@](C)(CO)[C@H](O)CC[C@]42C)CO3)C(=O)O1` the inhibition [2] was “inactive”.

In the case of `C=C1CC[C@@H]2[C@]3(C)COC(c4ccc(OC)cc4)O[C@@H]3CC[C@@]2(C)[C@@H]1C/C=C1/C(=O)OC[C@H]1O` (stereo not given in full), the inhibition [2] is reported as 13.2%.

In the case of `C[C@]1(CO)[C@H]2CC[C@@]3(CO3)[C@@H](/C=C/C3=CCOC3=O)[C@]2(C)CC[C@H]1O`, the inhibition [2] is reported as “inactive”.

In the case of `C=C1CC[C@@H]2[C@]3(C)COC(c4ccccc4)O[C@@H]3CC[C@@]2(C)[C@@H]1C/C=C1/C(=O)OC[C@H]1O` (stereo not given in full), the inhibition [2] is reported as 48.9%.

In the case of `C=C1CC[C@@H]2[C@](C)(CO)[C@H](O)CC[C@@]2(C)[C@@H]1/C=C/C1=CC(=C/c2cccc(Br)c2)/OC1=O`, the inhibition [2] is reported as 16.7%.

`C=C1CC[C@@H]2[C@]3(C)COC(CCCCCC)O[C@@H]3CC[C@@]2(C)[C@@H]1C/C=C1/C(=O)OC[C@H]1O` (stereo not given in full) was tested, and the inhibition [1] was “inactive” and the inhibition [2] was 20.1%.

With `C=C1CC[C@@H]2[C@](C)(CO)[C@H](O)CC[C@@]2(C)[C@@H]1/C=C/C1=CC(=C/C=C(/C)CCC=C(C)C)/OC1=O` the inhibition [2] was “inactive”.

Work on `COc1ccc(/C=C2C=C(/C=C/[C@@H]3[C@@]4(CC[C@@H]5[C@](C)(CO)[C@H](O)CC[C@]53C)CO4)C(=O)O/2)cc1` yielded an inhibition [2] of 37.7%.

`C=C1CC[C@@H]2[C@]3(C)COC(c4cccc(Br)c4)O[C@@H]3CC[C@@]2(C)[C@@H]1C/C=C1/C(=O)OC[C@H]1O` (stereo not given in full) was tested, and the inhibition [2] was 49.6%.

With `C=C1CC[C@@H]2[C@]3(C)COC(CCCC)O[C@@H]3CC[C@@]2(C)[C@@H]1C/C=C1/C(=O)OC[C@H]1O` (stereo not given in full) the inhibition [1] was “inactive” and the inhibition [2] was “inactive”.

With `C=C1CC[C@@H]2[C@](C)(CO)[C@H](O)CC[C@@]2(C)[C@@H]1/C=C/C1=CC(=C/CCC)/OC1=O` the inhibition [1] was “inactive” and the inhibition [2] was 43.5%.

In the case of `C=C1CC[C@@H]2[C@](C)(CO)[C@H](O)CC[C@@]2(C)[C@@H]1/C=C/C1=CC(=C(C)C)OC1=O`, the inhibition [1] is reported as “inactive” and the inhibition [2] is reported as 17.1%.

`C=C1CC[C@@H]2[C@](C)(CO)[C@H](O)CC[C@@]2(C)[C@@H]1C/C=C1/C(=O)OC[C@H]1O` was tested, and the inhibition [1] was “inactive” and the inhibition [2] was “inactive”.

With `C=C1CC[C@@H]2[C@](C)(CO)[C@H](O)CC[C@@]2(C)[C@@H]1CCC1C(=O)OC[C@H]1O` (stereo not given in full) the inhibition [1] was “inactive” and the inhibition [2] was 34.2%.
